For orientation: IC50 means the concentration that inhibits the measured activity by half. A higher IC50 goes with lower potency.

From patent publication US20260200928A1, “THERAPEUTIC COMPOUNDS” (Sanofi, priority 2022, published 2026) come the findings set out here.

The target of the test is T1, human IL-17A (Homo sapiens, UniProt Q16552).
T1 construct: purchased R&D Systems 7955-IL/CF
T1 sequence (Q16552 24-155): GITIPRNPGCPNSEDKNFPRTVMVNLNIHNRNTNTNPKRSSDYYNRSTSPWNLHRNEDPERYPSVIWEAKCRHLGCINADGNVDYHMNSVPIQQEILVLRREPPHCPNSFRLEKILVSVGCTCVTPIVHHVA
As to the kind of experiment: IL-17A AlphaLISA competition assay (block of IL-17A binding to its receptor IL-17RA). The following applies: mean IC50 (n≥2), block of IL-17A binding to IL-17RA. How it is done:
The ability of the compounds to block binding of IL-17A to its receptor, IL-17RA, was analysed in a competition assay using AlphaLISA technology (Perkin Elmer). The assay is a bead based AlphaLISA where the IL-17RA is captured on the acceptor bead via an Fc tag and IL-17A is captured on the streptavidin donor bead via a biotinylated anti-IL17A antibody.
Assay buffer was prepared by adding 0.05% Tween-20 (v/v) and 0.1% BSA to Phosphate Buffered Saline (PBS). The assay was carried out in 384-well white low volume plates (Perkin Elmer #6008359). 10 μL of a 7.5 nM stock of human recombinant IL-17A (R&D Systems 7955-IL/CF) diluted in assay buffer was dispensed into the assay plate and compounds or DMSO vehicle control were added in a volume of 75 nL using an acoustic dispenser (Beckman). The compounds were pre-incubated with the IL-17A for 30 min at room temperature prior to addition of 5 μL of a 5 nM stock of human recombinant IL-17RA/Fc chimera (R&D Systems 177-IR-100) diluted in assay buffer. The IL-17A was incubated with the receptor for a further 90 minutes at room temperature before addition of 5 μL of a mixture of anti-human Fc IgG acceptor beads (75 μg/mL, Perkin Elmer AL1030) and anti-IL-17A biotin conjugated antibody (5 nM, Abcam, #ab155575) in assay buffer. After a further 30 min incubation at room temperature, 5 μL of streptavidin donor beads (75 μg/mL, Perkin Elmer 6760002S) were added and the plate was incubated for 3 h in the dark.
The AlphaLisa signal was measured using the PheraSTAR plate reader (BMG). Data were analysed using GeneData Screener and fitted to a 4-parameter logistic equation. The IC50 values were calculated using the DMSO vehicle as the negative control and a high concentration (4 μM) of a reference IL-17A inhibitor as the positive control. All compounds were analysed at least in duplicate (n≥2).
For orientation: In Alpha technology, singlet oxygen from a donor bead excites a nearby acceptor bead.
“1-isopropyl-N-((1S)-2-((4-((S)-2-methoxy-1-((S)-2-oxo-4-(trifluoromethyl)imidazolidin-1-yl)ethyl)pyridin-2-yl)amino)-2-oxo-1-(4-(trifluoromethyl)cyclohexyl)ethyl)-1H-pyrazole-5-carboxamide [Example 303]” yielded an IC50 of 46 nM. On to “4-Cyclopropyl-N—((S)-1-((1r,4S)-4-methylcyclohexyl)-2-oxo-2-((5-(((S)-2-oxo-4-(trifluoromethyl)imidazolidin-1-yl)methyl)pyridin-3-yl)amino)ethyl)-1,2,5-oxadiazole-3-carboxamide and 4-Cyclopropyl-N—((R)-1-((1r,4R)-4-methylcyclo-hexyl)-2-oxo-2-((5-(((S)-2-oxo-4-(trifluoromethyl)imidazolidin-1-yl)methyl)pyridin-3-yl)amino)ethyl)-1,2,5-oxadiazole-3-carboxamide [Example 84]”, for which the IC50 stood at 373 nM. As to “4-ethyl-N-(1-(4-fluorocyclohexyl)-2-((4-((S)-2-methoxy-1-((S)-2-oxo-4-(trifluoromethyl)imidazolidin-1-yl)ethyl)pyridin-2-yl)amino)-2-oxoethyl)-1,2,5-oxadiazole-3-carboxamide [Example 285]”, the IC50 was determined as 17 nM. The compound `CC(C)(C)OCC(NC(=O)OCc1ccccc1)C(=O)Nc1cc(CN2C[C@@H](C(F)(F)F)NC2=O)ccn1` (mixture of isomers) [Example 81, Benzyl ((rac)-3-(tert-butoxy)-1-oxo-1-((4-(((S)-2-oxo-4-(trifluoromethyl)imidazolidin-1-yl)methyl)pyridin-2-yl)amino)propan-2-yl)carbamate] came in with an IC50 of 6140 nM. To `COCC(c1ccnc(NC(=O)[C@@H](NC(=O)c2cnc(C)nc2C(F)(F)F)[C@H]2CC[C@H](C)CC2)c1)N1C[C@@H](C(F)(F)F)NC1=O` (mixture of isomers) [Example 90, N-((1S)-2-((4-(2-methoxy-1-((RS)-2-oxo-4-(trifluoromethyl)imidazolidin-1-yl)ethyl)pyridin-2-yl)amino)-1-((1r,4S)-4-methylcyclohexyl)-2-oxoethyl)-2-methyl-4-(trifluoromethyl)pyrimidine-5-carboxamide] belongs 4520 nM; to `COC[C@H](c1ccnc(NC(=O)[C@@H](NC(=O)C(F)(F)c2cccc(C#N)c2)[C@H]2CC[C@H](C)CC2)c1)N1C[C@@H](C(F)(F)F)NC1=O` (relative stereo) [Example 247, 2-(3-Cyanophenyl)-2,2-difluoro-N—((S)-2-((4-((S)-2-methoxy-1-((S)-2-oxo-4-(trifluoromethyl)imidazolidin-1-yl)ethyl)pyridin-2-yl)amino)-1-((1r,4S)-4-methylcyclohexyl)-2-oxoethyl)acetamide], 58 nM. On to `Cn1nccc1C(=O)N[C@H](C(=O)Nc1cc(C(NC(=O)CCC(F)(F)F)C2CC2)ccn1)C(C1CC1)C1CC1` (single isomer, unassigned) [Example 38], for which the IC50 was determined as 448 nM. To `O=C(CCC(F)(F)F)NC(c1ccnc(NC(=O)[C@@H](NC(=O)c2nonc2C2CC2)C(C2CC2)C2CC2)c1)C1CC1` (single isomer, unassigned) [Example 39] belongs 138 nM. Take `O=C(CCC(F)(F)F)NC(c1ccnc(NC(=O)[C@@H](NC(=O)c2nonc2C2CC2)C(C2CC2)C2CC2)c1)C1CC1` (single isomer, unassigned) [Example 40]: the IC50 turned out to be 92 nM. With `CC(C)n1nccc1C(=O)N[C@H](C(=O)Nc1cc(C(NC(=O)CCC(F)(F)F)C2CC2)ccn1)C(C1CC1)C1CC1` (single isomer, unassigned) [Example 41], the IC50 worked out at 282 nM.

In the case of `Cn1nccc1C(=O)N[C@H](C(=O)Nc1cc(C(NC(=O)CCC(F)(F)F)C2CC2)ccn1)C(C1CC1)C1CC1` (single isomer, unassigned) [Example 42], the IC50 came out at 524 nM. Next, `CC(C)n1nccc1C(=O)N[C@H](C(=O)Nc1cc(C(NC(=O)CCC(F)(F)F)C2CC2)ccn1)C(C1CC1)C1CC1` (single isomer, unassigned) [Example 43]: 171 nM.
